Data: patent publication US8895587B2, “Insecticidal compounds based on arylthioacetamide derivatives” (Syngenta Participations AG, priority 2011, dated 2014)

Experiments:
Type in all cases: in vivo
[1] = tested on: Diabrotica balteata; experiment: Diabrotica balteata (corn root worm) larval test on artificial diet; details: 120 h, application rate 200 ppm (concentration in well 18 ppm), L2 larvae on artificial diet, 5 days
Description: (§1) Diabrotica balteata (Corn Root Worm): A 24-well microtiter plate (MTP) with artificial diet was treated with test solutions at an application rate of 200 ppm (concentration in well 18 ppm) by pipetting. After drying, the MTP's were infested with L2 larvae (6-10 per well). After an incubation period of 5 days, samples were checked for larval mortality and growth regulation.

[2] = tested on: Heliothis virescens; experiment: Heliothis virescens (tobacco budworm) egg/larval test on artificial diet; details: 96 h; for pest or weed control at 0.8 ppm: application rate 0.8 ppm; for pest or weed control at 3 ppm: application rate 3 ppm
[3] = tested on: Heliothis virescens; experiment: as above; details: 96 h, application rate 200 ppm (concentration in well 18 ppm), eggs on artificial diet, 4 days
Description: Eggs (0-24 h old) were placed in 24-well microtiter plate on artificial diet and treated with test solutions at an application rate of 200 ppm (concentration in well 18 ppm) by pipetting. After an incubation period of 4 days, samples were checked for egg mortality, larval mortality, and growth regulation.

[4] = tested on: Diabrotica balteata; experiment: Diabrotica balteata (corn root worm) larval test on artificial diet; details: 120 h, read-out: Control/% Diabrotica balteata Corn rootworm; for pest or weed control at 3 ppm: application rate 3 ppm; for pest or weed control at 12 ppm: application rate 12 ppm; for pest or weed control at 50 ppm: application rate 50 ppm
[5] = tested on: Thrips tabaci; experiment: Thrips tabaci (onion thrips) leaf disc test; details: foliar, 168 h, application rate 200 ppm, sunflower leaf discs, 7 days
Description: Sunflower leaf discs were placed on agar in a 24-well microtiter plate and sprayed with test solutions at an application rate of 200 ppm. After drying, the leaf discs were infested with a thrips population of mixed ages. After an incubation period of 7 days, samples were checked for mortality.

[6] = tested on: Plutella xylostella; experiment: Plutella xylostella (diamond back moth) larval test on artificial diet; details: 144 h, application rate 200 ppm (concentration in well 18 ppm), L2 larvae on artificial diet, 6 days
Description: as §1, with “24-well” for “Diabrotica balteata (Corn Root Worm): A 24-well”, “(7-12” for “(6-10”, “6” for “5”

[7] = tested on: Spodoptera littoralis; experiment: Spodoptera littoralis (Egyptian cotton leafworm) leaf disc test; details: foliar, 72 h, application rate 200 ppm, cotton leaf discs, L1 larvae, mortality, feeding behavior, growth regulation 3 DAT
Text: Spodoptera littoralis (Egyptian Cotton Leafworm): Cotton leaf discs were placed on agar in a 24-well microtiter plate and sprayed with test solutions at an application rate of 200 ppm. After drying, the leaf discs were infested with 5 L1 larvae. The samples were checked for mortality, feeding behavior, and growth regulation 3 days after treatment (DAT).

[8] = tested on: Tetranychus urticae; experiment: Tetranychus urticae (two-spotted spider mite) leaf disc test; details: foliar, 192 h, application rate 200 ppm, bean leaf discs, 8 days
Text: Bean leaf discs on agar in 24-well microtiter plates were sprayed with test solutions at an application rate of 200 ppm. After drying, the leaf discs are infested with mite populations of mixed ages. 8 days later, discs are checked for egg mortality, larval mortality, and adult mortality.

[9] = tested on: Plutella xylostella; experiment: Plutella xylostella (diamond back moth) larval test on artificial diet; details: 144 h; for pest or weed control at 0.8 ppm: application rate 0.8 ppm; for pest or weed control at 3 ppm: application rate 3 ppm
[10] = tested on: Myzus persicae; experiment: Myzus persicae (green peach aphid), systemic test; details: 144 h, application rate 12.5 ppm, roots of pea seedlings in test solution, 6 days
Text: Myzus persicae (Green peach aphid), systemic test: Roots of pea seedlings, infested with an aphid population of mixed ages, are placed directly in the test solutions at an application rate of 12.5 ppm. 6 days after introduction, samples are checked for mortality and special effects on the plant. The following compounds gave at least 80% control of Myzus persicae: […]

Compound | pest or weed control at 200 ppm [1] [%] | pest or weed control at 0.8 ppm [2] [%] | pest or weed control at 3 ppm [2] [%] | pest or weed control at 200 ppm [3] [%] | pest or weed control at 3 ppm [4] [%] | pest or weed control at 12 ppm [4] [%] | pest or weed control at 200 ppm [5] [%] | pest or weed control at 200 ppm [6] [%] | pest or weed control at 200 ppm [7] [%] | pest or weed control at 200 ppm [8] [%] | pest or weed control at 0.8 ppm [9] [%] | pest or weed control at 3 ppm [9] [%] | pest or weed control at 12.5 ppm [10] [%] | pest or weed control at 50 ppm [4] [%]
Cc1cc(C2=NOC(c3cc(Cl)cc(Cl)c3)(C(F)(F)F)C2)ccc1SCC(=O)NCC(F)(F)F (stereo not shown) [Compound A49, 2-{2-Methyl-4-[5-(3,5-Dichloro-phenyl)-5-trifluoromethyl-4,5-dihydro-isoxazol-3-yl]-phenylsulfanyl}-N-(2,2,2-trifluoro-ethyl)-acetamide] | ≥ 80 | 80 | 100 | ≥ 80 | 100 | 100 | ≥ 80 | ≥ 80 | ≥ 80 | ≥ 80 | 80 | 100 | ≥ 80 | –
Cc1cc(C2=NOC(c3cc(Cl)cc(Cl)c3)(C(F)(F)F)C2)ccc1[S+]([O-])CC(=O)NCC(F)(F)F (stereo not shown) [Compound A50, 2-{4-[5-(3,5-Dichloro-phenyl)-5-trifluoromethyl-4,5-dihydro-isoxazol-3-yl]-2-methyl-benzenesulfinyl}-N-(2,2,2-trifluoro-ethyl)-acetamide] | ≥ 80 | 80 | 80 | ≥ 80 | 75 | 100 | ≥ 80 | ≥ 80 | ≥ 80 | ≥ 80 | 80 | 100 | ≥ 80 | 100
Cc1cc(C2=NOC(c3cc(Cl)cc(Cl)c3)(C(F)(F)F)C2)ccc1S(=O)(=O)CC(=O)NCC(F)(F)F (stereo not shown) [Compound A51, 2-{4-[5-(3,5-Dichloro-phenyl)-5-trifluoromethyl-4,5-dihydro-isoxazol-3-yl]-2-methyl-benzenesulfonyl}-N-(2,2,2-trifluoro-ethyl)-acetamide] | ≥ 80 | 80 | 80 | ≥ 80 | – | 100 | ≥ 80 | ≥ 80 | ≥ 80 | ≥ 80 | 80 | 100 | ≥ 80 | 100
